Common to all, as to format: cell-based, human
One test has as its system MRC-5. The experiment in a line: MTT assay, non-cancerous fibroblasts MRC-5. From the text:
(§1) Gynecological cancer cell lines, including ovarian (A2780), cervical (HeLa), and breast cancer cell lines (MCF7, T47D, MDA-MB-231, and MDA-MB-361) were purchased from the European Collection of Authenticated Cell Cultures (ECACC, Salisbury, United Kingdom). Additional cervical cell lines (SiHa and C33A) and a non-cancerous immortalized, mammary gland epithelial cell line (hTERT-HME1) were purchased from LGC Standards GmbH (Wesel, Germany). Non-cancerous fibroblast cells (MRC-5) were also obtained from the ECACC. All cells were cultured in minimal essential medium supplemented with 10% fetal bovine serum, 1% non-essential amino acids, and 1% antibiotic-antimycotic mixture, in humidified air containing 5% CO2 at 37°C. Immortalized hTERT-HME1 cells were maintained in serum-free mammary epithelial cell growth medium (MEGM) supplemented with insulin, human epidermal growth factor (hEGF), hydrocortisone, bovine pituitary extract, and an antibiotic-antimycotic mixture. All the medium and supplements were purchased from Lonza Group Ltd. (Basel, Switzerland).
(§2) The antiproliferative properties of the compounds were assessed by an MTT assay ([Mosmann, 1983]). Cells were seeded onto 96-well microplates at a density of 10,000 cells/well (MDA-MB-361 and C33A) or 5,000 cells/well (all other cell lines). After an overnight incubation, fresh medium containing the test compounds (at a concentration of 10 or 30 μM) was added. After incubation for 72 h at 37°C in humidified air, [3-(4,5-dimethylthiazol-2-yl)-2,5-diphenyltetrazolium bromide] (MTT) solution (5 mg/mL) was added. Purple formazan crystals were formed by the living cells during a 4 h contact period, which were assayed by spectrophotometry after having been dissolved in 100 μL DMSO. Untreated cells served as control, and cisplatin (CIS) (Ebewe Pharma GmbH, Unterach, Austria) was used as a reference compound. […] Two independent measurements were performed with five parallel wells. To present preliminary data concerning tumor selectivity of the potent compounds, the procedure was repeated on MRC-5 fibroblast and hTERT-HME1 immortalized mammary gland epithelial cells under the same experimental conditions.

The next test relates to SiHa. Put plainly: MTT antiproliferative assay, SiHa. Particulars: 72 h; for inhibition at 10 µM / inhibition at 30 µM: Homo sapiens, read-out: Growth inhibition (%) ± SEM.
Text: as §1, §2
(Tetrazolium dyes change colour on reduction, which living cells bring about.)

A further test has as its system T47D. The experiment in a line: MTT antiproliferative assay, T47D. Particulars: 72 h; for inhibition at 10 µM / inhibition at 30 µM: Homo sapiens, read-out: Growth inhibition (%) ± SEM.
Text: as §1, §2

The subject of another test is hTERT-HME1. The experiment in a line: MTT assay, immortalized mammary gland epithelial cells hTERT-HME1. The settings on record: for Growth inhibition (%) ± SEM: 72 h.
Text: as §1, §2

A further test concerns HeLa. Put plainly: MTT antiproliferative assay, HeLa. Particulars: 72 h; for IC50: read-out: calculated IC50 value; for inhibition at 10 µM / inhibition at 30 µM: read-out: Growth inhibition (%) ± SEM.
Text: as §1, §2

A further test deals with A2780. Put plainly: MTT antiproliferative assay, A2780. Particulars: for Growth inhibition (%) ± SEM / inhibition at 10 µM / inhibition at 30 µM: 72 h; for inhibition at 10 µM / inhibition at 30 µM: Homo sapiens, read-out: Growth inhibition (%) ± SEM.
Text: as §1, §2

The subject of another test is C33A. The experiment in a line: MTT antiproliferative assay, C33A. The settings on record: 72 h; for inhibition at 10 µM / inhibition at 30 µM: Homo sapiens, C-33-A, read-out: Growth inhibition (%) ± SEM.
Text: as §1, §2

The test system of the next test is MCF-7. The experiment in a line: MTT antiproliferative assay, MCF-7. The settings on record: 72 h; for inhibition at 10 µM / inhibition at 30 µM: Homo sapiens, MCF7, read-out: Growth inhibition (%) ± SEM.
Text: as §1, §2

A further test concerns MDA-MB-361. Put plainly: MTT antiproliferative assay, MDA-MB-361. Particulars: for Growth inhibition (%) ± SEM / inhibition at 10 µM / inhibition at 30 µM: 72 h; for inhibition at 10 µM / inhibition at 30 µM: Homo sapiens, read-out: Growth inhibition (%) ± SEM.
Text: as §1, §2

A further test has as its system MDA-MB-231. Put plainly: MTT antiproliferative assay, MDA-MB-231. Particulars: for inhibition at 10 µM / inhibition at 30 µM: Homo sapiens, read-out: Growth inhibition (%) ± SEM; for inhibition at 10 µM: MDA-MB-231, 10 μM.
Text: as §1, §2

Setting [1] is: read-out: calculated IC50 value.

Molecules are shown by their SMILES. Read-outs that look alike come from different tables or passages of the source. Where only a bound is given, the exact number is not on record here.

The term IC50 denotes the concentration needed to halve the response being measured. Turning to `N.N.[Cl][Pt][Cl]` [CIS, cisplatin, reference compound], the “Growth inhibition (%) ± SEM” value stood at 60.3 ± 3.3% in the test on MRC-5 (MRC-5, 10 μM, 72 h); 61.9 ± 1.0% in the test on MRC-5 (MRC-5, 30 μM, 72 h); 88.6 ± 0.5% with SiHa (10 μM); 90.2 ± 1.8% in the test on SiHa (30 μM); 51.0 ± 2.0% with T47D (10 μM); 55.0 ± 1.5% in the test on T47D (30 μM). In addition, the “Growth inhibition (%) ± SEM” value with hTERT-HME1 (hTERT-HME1, 10 μM) came out at 97.7 ± 0.3%; in the test on hTERT-HME1 (hTERT-HME1, 30 μM), 99.1 ± 0.3%; in the test with HeLa (10 μM), 42.6 ± 2.3%; with HeLa (30 μM), 99.9 ± 0.3%; in the test with A2780 (A2780, 10 μM), 83.6 ± 1.2%; in the test with A2780 (A2780, 30 μM), 95.0 ± 0.3%. The “Growth inhibition (%) ± SEM” value in the test on C33A (10 μM) worked out at 83.8 ± 0.8%; in the test on C33A (30 μM), 93.9 ± 0.6%; with MCF-7 (MCF-7, 10 μM), 66.9 ± 1.8%; in the test on MCF-7 (MCF-7, 30 μM) it was 96.8 ± 0.4%; in the test on MDA-MB-361 (MDA-MB-361, 10 μM) it was 67.5 ± 1.0%; in the test on MDA-MB-361 (MDA-MB-361, 30 μM), 87.8 ± 1.1%. In addition, in the test with MDA-MB-231 (MDA-MB-231, 30 μM, 72 h), the “Growth inhibition (%) ± SEM” value was determined as 71.5 ± 1.2%. The IC50 in the test on MRC-5 (MRC-5, 72 h, read-out: calculated IC50 value) was 6.19 µM; in the test with SiHa (setting [1]) it was 7.84 µM; in the test with T47D (setting [1]), 9.78 µM; in the test with hTERT-HME1 (hTERT-HME1, 72 h, read-out: calculated IC50 value) it was 2.45 µM; in the test with HeLa, 12.4 µM; in the test on A2780 (A2780, 72 h, read-out: calculated IC50 value), 1.3 µM. Also, the half-inhibitory concentration (IC50) in the test on C33A (setting [1]) is 1.77 µM; in the test with MDA-MB-361 (MDA-MB-361, 72 h, read-out: calculated IC50 value) it was 3.74 µM; in the test with MDA-MB-231 (MDA-MB-231, 72 h, read-out: calculated IC50 value), 19.1 µM.

As usually defined, the inhibition is the share of the control response that was lost under treatment. As for `C[C@]12CC[C@H]3[C@@H](CCC4=CC(=O)CC[C@@H]43)[C@@H]1CC[C@H]2O` [Compound 2, 17α-19-nortestosterone], the inhibition at 10 µM was under 20% in the test on SiHa (10 μM); under 20% in the test with T47D (10 μM); 28.1 ± 4% in the test on HeLa (Homo sapiens, 10 μM); under 20% in the test on A2780 (A2780, 10 μM); under 20% in the test with C33A (10 μM); under 20% in the test with MCF-7 (MCF-7, 10 μM). Moreover, the inhibition at 10 µM is under 20% in the test with MDA-MB-361 (MDA-MB-361, 10 μM) and under 20% in the test on MDA-MB-231 (72 h). In addition, the inhibition at 30 µM in the test with SiHa (30 μM) is under 20%; in the test with T47D (30 μM) it was under 20%; with HeLa (Homo sapiens, 30 μM) it was 37.9 ± 3.4%; with A2780 (A2780, 30 μM), under 20%; in the test with C33A (30 μM), under 20%; in the test on MCF-7 (MCF-7, 30 μM) it was 27.7 ± 3.7%. For the same compound, the inhibition at 30 µM with MDA-MB-361 (MDA-MB-361, 30 μM) was under 20%; in the test on MDA-MB-231 (MDA-MB-231, 30 μM, 72 h), under 20%.

`C[C@]12CC[C@H]3[C@@H](CCC4=CC(=O)CC[C@@H]43)[C@@H]1CC[C@H]2Br` [Compound 4, 17α-bromo-19-nortestosterone]: the inhibition at 10 µM in the test on MRC-5 (Homo sapiens, MRC5, MRC-5, 10 μM, 72 h, read-out: Growth inhibition (%) ± SEM) is 11.9 ± 2.3%; in the test on SiHa (10 μM) it was under 20%; in the test on T47D (10 μM), under 20%; in the test with HeLa (Homo sapiens, 10 μM) it was 94.4 ± 0.7%; in the test with A2780 (A2780, 10 μM) it was under 20%; in the test with C33A (10 μM), under 20%. The inhibition at 10 µM is under 20% in the test with MCF-7 (MCF-7, 10 μM); under 20% in the test with MDA-MB-361 (MDA-MB-361, 10 μM); under 20% in the test with MDA-MB-231 (72 h). The inhibition at 30 µM with MRC-5 (Homo sapiens, MRC5, MRC-5, 30 μM, 72 h, read-out: Growth inhibition (%) ± SEM) was 20.4 ± 2.1%; with SiHa (30 μM), under 20%; in the test on T47D (30 μM), under 20%; in the test on HeLa (Homo sapiens, 30 μM) it was 94.1 ± 0.5%; in the test with A2780 (A2780, 30 μM) it was 54.4 ± 1.6%; in the test with C33A (30 μM) it was under 20%. Moreover, the inhibition at 30 µM in the test with MCF-7 (MCF-7, 30 μM) was under 20%; with MDA-MB-361 (MDA-MB-361, 30 μM), under 20%; with MDA-MB-231 (MDA-MB-231, 30 μM, 72 h), under 20%. In addition, the half-inhibitory concentration (IC50) with HeLa (Homo sapiens) is 1.69 µM.

The values above are taken from paper PMC6072853 (Frontiers in Pharmacology, 2018).
